One series has as its system Candida albicans. Description: Antifungal activity against Candida albicans CIP 1180-79. Format: functional.
In series [1] the test system is Human alphaherpesvirus 1. Description: Antiviral activity against Human herpesvirus 1 strain KOS infected in HEL cells. In kind it is functional. Conditions: Human alphaherpesvirus 1, KOS.
In the next series the test system is Sindbis virus. Description: Antiviral activity against Sindbis virus infected Vero cells. In kind it is functional.
The test system of series [2] is Human alphaherpesvirus 1. In words: Antiviral activity against thymidine kinase-deficient, acylcovir-resistant Human herpesvirus 1 strain KOS infected in HEL cells. Format: functional. As to conditions: Human alphaherpesvirus 1, KOS.
In series [3] the test system is Coxsackievirus B4. Description: Antiviral activity against Human coxsackievirus B4 infected HeLa cells. In kind it is functional. As to conditions: Enterovirus B.
In series [4] the test system is Mammalian orthoreovirus 1. In words: Antiviral activity against Mammalian orthoreovirus 1 infected Vero cells. In kind it is functional.
The subject of series [5] is Respiratory syncytial virus. Description: Antiviral activity against Respiratory syncytial virus infected HeLa cells. In kind it is functional. Conditions: human respiratory syncytial virus.
The subject of series [6] is Coxsackievirus B4. Description: Antiviral activity against Human coxsackievirus B4 infected Vero cells. Format: functional. Conditions: Enterovirus B.
The test system of a further series is Staphylococcus aureus. In words: Antibacterial activity against Staphylococcus aureus CIP 4.83. Format: functional.
The next series has as its system Human alphaherpesvirus 2. Description: Antiviral activity against Human herpesvirus 2 strain G infected HEL cells. In kind it is functional. Conditions: Human alphaherpesvirus 2, strain G.
In a further series the test system is Vaccinia virus. In words: Antiviral activity against Vaccinia virus infected HEL cells. In kind it is functional. As to conditions: Orthopoxvirus vaccinia.
A further series concerns Escherichia coli. Description: Antibacterial activity against Escherichia coli CIP 54127. Format: functional.
Series [7] can be described thus: Cytotoxicity against Homo sapiens (human) HEL cells. In kind it is cell-based.
The subject of series [8] is Vesicular stomatitis virus. In words: Antiviral activity against Vesicular stomatitis virus infected HeLa. In kind it is functional.
In series [9] the test system is Vesicular stomatitis virus. Description: Antiviral activity against Vesicular stomatitis virus infected HEL cells. In kind it is functional.
A further series relates to Human respirovirus 3. Description: Antiviral activity against Human parainfluenza virus 3 infected Vero cells. In kind it is functional.
Series [10] in a line: Cytotoxicity against Chlorocebus aethiops (African green monkey) Vero cells. In kind it is cell-based. As to conditions: chlorocebus sabaeus.
A short description of series [11]: Cytotoxicity against Homo sapiens (human) HeLa cells. In kind it is cell-based.
The next series has as its system Punta Toro virus. In words: Antiviral activity against Punta Toro virus infected Vero cells. In kind it is functional.
Another series deals with Saccharomyces cerevisiae. In words: Antifungal activity against Saccharomyces cerevisiae ATCC 28383. Format: functional.

≈ marks a conversion by molar mass, not a printed value. A value given as a limit tells only on which side of the number the result lay.

As for `O=C1Nc2ccccc2/C1=N\c1cccc(Cc2cccc(/N=C3/C(=O)Nc4ccccc43)c2)c1`, the MIC in the series with Candida albicans is below 50 µg/mL; against Human alphaherpesvirus 1 [1] it was above 16 µg/mL; in the series with Sindbis virus, above 16 µg/mL; against Human alphaherpesvirus 1 [2] it was above 16 µg/mL; against Coxsackievirus B4 [3], above 16 µg/mL; in series [4], above 16 µg/mL. In addition, the MIC is above 16 µg/mL in series [5]; above 16 µg/mL against Coxsackievirus B4 [6]; below 50 µg/mL against Staphylococcus aureus; above 16 µg/mL against Human alphaherpesvirus 2; above 16 µg/mL with Vaccinia virus; below 50 µg/mL in the series with Escherichia coli. In addition, the MIC in series [8] was 9.6 µg/mL (≈ 21 µM); in series [9], above 16 µg/mL; in the series with Human respirovirus 3, above 16 µg/mL; in the series on Punta Toro virus, above 16 µg/mL; against Saccharomyces cerevisiae, below 50 µg/mL. Also, the MCC was 80 µg/mL in series [7], 80 µg/mL in series [10] and at least 16 µg/mL in [11].
`O=C1Nc2ccc(F)cc2/C1=N\c1cccc(Cc2cccc(/N=C3/C(=O)Nc4ccc(F)cc43)c2)c1`: the MIC in the series with Candida albicans is below 50 µg/mL; in the series with Human alphaherpesvirus 1 [1], above 16 µg/mL; against Sindbis virus, above 16 µg/mL; in the series with Human alphaherpesvirus 1 [2] it was above 16 µg/mL; in the series on Coxsackievirus B4 [3], above 16 µg/mL; in [4] it was above 16 µg/mL. Further, the MIC was above 16 µg/mL in series [5]; above 16 µg/mL in the series on Coxsackievirus B4 [6]; below 50 µg/mL in the series on Staphylococcus aureus; above 16 µg/mL with Human alphaherpesvirus 2; above 16 µg/mL with Vaccinia virus; below 50 µg/mL with Escherichia coli. Besides, the MIC in series [8] was 9.6 µg/mL (≈ 19.5 µM); in series [9], above 16 µg/mL; in the series with Human respirovirus 3, above 16 µg/mL; with Punta Toro virus it was above 16 µg/mL; against Saccharomyces cerevisiae, below 50 µg/mL. For the same molecule, the MCC in series [7], in series [10] and in series [11] was 80 µg/mL in each case.
Regarding `O=C1/C(=N/c2cccc(Cc3cccc(/N=C4/C(=O)N(Cc5ccccc5)c5ccccc54)c3)c2)c2ccccc2N1Cc1ccccc1`, the MIC in the series on Candida albicans was below 50 µg/mL; in the series with Human alphaherpesvirus 1 [1] it was above 40 µg/mL; in the series on Sindbis virus, above 40 µg/mL; in the series on Human alphaherpesvirus 1 [2], above 40 µg/mL; against Coxsackievirus B4 [3] it was above 40 µg/mL; in series [4], above 40 µg/mL. Also, the MIC in series [5] was above 40 µg/mL; against Coxsackievirus B4 [6], above 40 µg/mL; against Staphylococcus aureus it was below 50 µg/mL; against Human alphaherpesvirus 2 it was above 40 µg/mL; in the series on Vaccinia virus it was above 40 µg/mL; against Escherichia coli, below 50 µg/mL. In addition, the MIC is above 40 µg/mL in series [8]; above 40 µg/mL in series [9]; above 40 µg/mL in the series with Human respirovirus 3; above 40 µg/mL against Punta Toro virus; below 50 µg/mL in the series on Saccharomyces cerevisiae. Besides, the MCC in [7], in series [10] and in series [11] was 200 µg/mL throughout.
Take `O=C1Nc2ccccc2/C1=N\c1ccc(Cc2cccc(/N=C3/C(=O)Nc4ccccc43)c2)cc1`: the MIC against Candida albicans was below 50 µg/mL; against Human alphaherpesvirus 1 [1], above 16 µg/mL; with Sindbis virus, above 16 µg/mL; with Human alphaherpesvirus 1 [2], above 16 µg/mL; in the series on Coxsackievirus B4 [3] it was above 16 µg/mL; in series [4], above 16 µg/mL. In addition, the MIC in series [5] was above 16 µg/mL; against Coxsackievirus B4 [6], above 16 µg/mL; in the series on Staphylococcus aureus it was below 50 µg/mL; against Human alphaherpesvirus 2 it was above 16 µg/mL; in the series with Vaccinia virus it was above 16 µg/mL; with Escherichia coli, below 50 µg/mL. Also, the MIC in [8] was 3.2 µg/mL (≈ 7.01 µM); in [9], above 16 µg/mL; against Human respirovirus 3, above 16 µg/mL; in the series on Punta Toro virus it was above 16 µg/mL; in the series with Saccharomyces cerevisiae it was below 50 µg/mL. Moreover, the MCC is 80 µg/mL in series [7], 80 µg/mL in [10] and at least 16 µg/mL in series [11].

Source of the values: ChEMBL document CHEMBL3045159, “Computational evaluation and experimental in vitro antibacterial, antifungal and antiviral activity of bis-Schiff bases of isatin and its derivatives” (Med Chem Res, 2013).
